Key:
rape = experiment: Test B pre/postemergence rape; assay type: in vivo, Brassica napus
Outline: (§1)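 Test chemicals in a non-phytotoxic solvent mixture with surfactant were sprayed preemergence onto planted seeds and postemergence onto plants 2 to 18 cm tall (1- to 4-leaf stage). After twelve to sixteen days in a greenhouse, injury was visually rated against untreated controls from 0 (no effect) to 10 (complete control).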

bamyardgrass = experiment: Test B flood test barnyardgrass; assay type: in vivo, Echinochloa crus-galli; details: for Barnyardgrass plant response rating (0 to 10 scale, 0 is no effect, 10 is complete control): under heading Pre-emergence
Outline: (§2)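 Flood test on plants grown to the 2-leaf stage; treated plants kept in greenhouse twelve to sixteen days, then visually rated against controls on a 0 (no effect) to 10 (complete control) scale.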

morningglory = experiment: Test B pre/postemergence morningglory; assay type: in vivo, Ipomoea hederacea
Outline: as §1

smallflower flatsedge = experiment: Test B flood test smallflower flatsedge; assay type: in vivo, Cyperus difformis; details: for S. Flatsedge plant response rating (0 to 10 scale, 0 is no effect, 10 is complete control): under heading Pre-emergence
Outline: as §2

[1] = Postemergence, Rate 250 g/ha, scale 0 to 10, 0 is no effect, 10 is complete control
[2] = Postemergence, Rate 500 g/ha, scale of 0 to 10 where 0 is no effect and 10 is complete control
[3] = Preemergence, Rate 62 g/ha, scale 0 to 10 (0 no effect, 10 complete control)
[4] = Preemergence, Rate 125 g/ha, scale of 0 to 10 where 0 is no effect and 10 is complete control
[5] = Preemergence, Rate 250 g/ha, scale 0 to 10, 0 is no effect, 10 is complete control
[6] = Preemergence, Rate 500 g/ha, scale 0 to 10, 0 is no effect, 10 is complete control
[7] = Rate 125 g/ha, Postemergence, scale 0 to 10, 0 is no effect, 10 is complete control
[8] = Postemergence section (flood test species), Rate 500 g/ha, scale of 0 to 10 where 0 is no effect and 10 is complete control
[9] = Rate 125 g/ha, Postemergence section (flood test species), scale 0 to 10, 0 is no effect, 10 is complete control
[10] = flood test species, listed under Postemergence, Rate 250 g/ha, scale 0 to 10, 0 is no effect, 10 is complete control
[11] = Postemergence, Rate 250 g/ha, scale 0 to 10
[12] = Postemergence, Rate 1000 g/ha, scale 0 to 10 (0 no effect, 10 complete control)
[13] = Rate 1000 g/ha, Preemergence, scale 0 to 10 (0 no effect, 10 complete control)
[14] = Pre-emergence, Rate 1000 g/ha, scale 0 to 10 (0 no effect, 10 complete control)
[15] = Rate 125 g/ha, flood test species, visual evaluation after twelve to sixteen days
[16] = Rate 250 g/ha, Pre-emergence (flood test species), scale 0 to 10, 0 is no effect, 10 is complete control
[17] = Rate 500 g/ha, Pre-emergence, flood test species, scale 0 to 10 (0 no effect, 10 complete control)
[18] = Preemergence, Rate 62 g/ha, scale of 0 to 10 where 0 is no effect and 10 is complete control
[19] = Rate 62 g/ha, Postemergence, scale 0 to 10, 0 no effect, 10 complete control
[20] = Rate 62 g/ha, flood test species, Pre-emergence, visual evaluation after twelve to sixteen days

Row | SMILES | Rape plant response rating (rape; [2]) | Plant response rating, Rape (rape; [4]) | Rape plant response rating (rape; [5]) | Rape plant response rating (rape; [6]) | Rape plant response rating (rape; [7]) | Morningglory plant response rating (morningglory; [2]) | Plant response rating, Morningglory (morningglory; [4]) | Morningglory plant response rating (morningglory; [5]) | Morningglory plant response rating (morningglory; [6]) | Morningglory plant response rating (morningglory; [7]) | Rape plant response rating (rape; [11]) | Barnyardgrass plant response rating (0 to 10 scale, 0 is no effect, 10 is complete control) (bamyardgrass; [15]) | Barnyardgrass plant response rating (bamyardgrass; [16]) | Barnyardgrass plant response rating (bamyardgrass; [17]) | S. Flatsedge plant response rating (0 to 10 scale, 0 is no effect, 10 is complete control) (smallflower flatsedge; [15]) | S. Flatsedge plant response rating (smallflower flatsedge; [16]) | S. Flatsedge plant response rating (smallflower flatsedge; [17]) | also measured
1 | CC(C)N(C(=O)n1oc(=O)n(C(CF)CF)c1=O)c1ccccc1 [Compound 421] | 8 | 10 | 10 | 10 | 0 | 10 | 6 | 7 | 8 | 8 |  |  |  |  |  |  |  | Plant response rating, Rape (rape; [1]): 3; Plant response rating, Rape (rape; [3]): 8; Barnyardgrass plant response rating (bamyardgrass; [8]): 3; Barnyardgrass plant response rating (bamyardgrass; Rate 62 g/ha, Postemergence (flood test species), scale of 0 to 10 where 0 is no effect and 10 is complete control): 0; Barnyardgrass plant response rating (bamyardgrass; [9]): 0; Plant response rating, Barnyardgrass (bamyardgrass; [10]): 2; Plant response rating, Morningglory (morningglory; [1]): 9; Plant response rating, Morningglory (morningglory; [3]): 4; S. Flatsedge plant response rating (smallflower flatsedge; [8]): 0; S. Flatsedge plant response rating (smallflower flatsedge; [9]): 0; Plant response rating, S. Flatsedge (smallflower flatsedge; [10]): 0
2 | CCOP(=O)(OCC)C(C)n1c(=O)on(C(=O)N(c2ccccc2)C(C)C)c1=O (stereo not drawn) [Compound 448] | 0 | 0 | 0 | 0 | 0 | 5 | 0 | 0 | 0 | 0 | 0 | 0 | 0 | 0 | 0 | 0 | 0 | Rape plant response rating (rape; [12]): 0; Plant response rating, Rape (rape; [13]): 0; Barnyardgrass plant response rating (bamyardgrass; [14]): 0; Morningglory plant response rating (morningglory; [11]): 2; Morningglory plant response rating (morningglory; [12]): 8; Plant response rating, Morningglory (morningglory; [13]): 0; S. Flatsedge plant response rating (smallflower flatsedge; [14]): 0
3 | CC[Si](C)(C)Cn1c(=O)on(C(=O)N(c2ccc(F)cc2)C(C)C)c1=O [Compound 459] |  | 0 | 0 | 0 | 0 |  | 0 | 0 | 0 | 8 | 0 | 0 | 0 | 0 | 0 | 0 | 0 | Plant response rating, Rape (rape; [18]): 0; Rape plant response rating (rape; [19]): 0; Plant response rating, Barnyardgrass (0 to 10 scale, 0 is no effect, 10 is complete control) (bamyardgrass; [20]): 0; Plant response rating, Morningglory (morningglory; [18]): 0; Morningglory plant response rating (morningglory; [19]): 6; Plant response rating, S. Flatsedge (0 to 10 scale, 0 is no effect, 10 is complete control) (smallflower flatsedge; [20]): 0

— US6737383B1, “Herbicidal oxadiazolidines” (priority 1999, dated 2004)
